Test results taken from US10829473B2, “Modulators of the cystic fibrosis transmembrane conductance regulator protein and methods of use” (AbbVie Overseas S.Á.R.L., priority 2017, dated 2020).
Read-outs that look alike come from different tables or passages of the source. Marks after values point to notes of the source that are not given here.

Biological target: T1, F508delCFTR (Homo sapiens, UniProt P13569, DEL508-508)
T1 construct: expressed in transfected cells; host or cells: CFBE41o- human lung derived epithelial cells (CFBE41o-F508delCFTR-HRP), doxycycline-inducible
T1 sequence (P13569 with tags, fused parts or gaps DEL508-508): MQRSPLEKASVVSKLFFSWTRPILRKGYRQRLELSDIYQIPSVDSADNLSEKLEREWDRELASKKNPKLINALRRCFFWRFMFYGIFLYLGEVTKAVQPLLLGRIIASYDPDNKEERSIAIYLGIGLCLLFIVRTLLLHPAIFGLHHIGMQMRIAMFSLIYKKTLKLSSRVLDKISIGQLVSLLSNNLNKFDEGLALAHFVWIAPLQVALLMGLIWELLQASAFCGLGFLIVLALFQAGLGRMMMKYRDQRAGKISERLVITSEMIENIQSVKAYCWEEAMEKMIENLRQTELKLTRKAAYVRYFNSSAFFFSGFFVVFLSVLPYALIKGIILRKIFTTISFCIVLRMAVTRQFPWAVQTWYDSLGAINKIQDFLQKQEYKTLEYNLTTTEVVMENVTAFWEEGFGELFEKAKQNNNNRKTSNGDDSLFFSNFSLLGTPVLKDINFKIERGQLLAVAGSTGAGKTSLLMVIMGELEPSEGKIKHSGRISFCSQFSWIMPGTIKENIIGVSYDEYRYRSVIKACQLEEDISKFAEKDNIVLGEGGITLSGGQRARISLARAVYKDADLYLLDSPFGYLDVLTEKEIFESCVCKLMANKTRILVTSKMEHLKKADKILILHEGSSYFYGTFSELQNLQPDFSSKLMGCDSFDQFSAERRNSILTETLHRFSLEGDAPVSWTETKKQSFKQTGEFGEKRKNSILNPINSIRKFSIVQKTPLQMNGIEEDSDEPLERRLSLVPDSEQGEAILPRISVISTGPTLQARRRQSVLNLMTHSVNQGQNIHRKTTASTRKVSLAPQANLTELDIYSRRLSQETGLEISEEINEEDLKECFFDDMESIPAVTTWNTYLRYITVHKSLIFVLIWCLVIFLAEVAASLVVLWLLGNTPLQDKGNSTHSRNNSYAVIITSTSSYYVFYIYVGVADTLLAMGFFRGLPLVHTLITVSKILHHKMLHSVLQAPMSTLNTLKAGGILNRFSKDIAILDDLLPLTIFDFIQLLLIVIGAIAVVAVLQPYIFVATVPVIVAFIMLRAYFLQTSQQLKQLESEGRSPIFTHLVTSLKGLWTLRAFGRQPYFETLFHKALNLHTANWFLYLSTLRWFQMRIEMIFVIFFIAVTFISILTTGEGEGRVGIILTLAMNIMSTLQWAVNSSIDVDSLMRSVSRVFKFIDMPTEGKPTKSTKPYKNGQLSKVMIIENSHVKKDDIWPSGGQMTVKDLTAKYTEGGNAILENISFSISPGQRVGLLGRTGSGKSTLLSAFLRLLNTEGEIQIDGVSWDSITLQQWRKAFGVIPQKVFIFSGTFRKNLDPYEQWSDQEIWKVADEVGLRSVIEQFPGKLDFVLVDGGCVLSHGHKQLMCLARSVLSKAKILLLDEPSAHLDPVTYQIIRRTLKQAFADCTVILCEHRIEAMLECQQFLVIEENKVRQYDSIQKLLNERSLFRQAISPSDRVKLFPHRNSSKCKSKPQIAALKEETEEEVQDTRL
Experiment: Cell Surface Expression-Horse Radish Peroxidase (CSE-HRP) Assay;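 on EC50 (with co-corrector): co-corrector chromenyl benzoic acid corrector at 2 or 3 µM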;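 on Maximum % activity (without co-corrector): % of on-plate positive control chromenyl benzoic acid corrector at 2 or 3 µM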
Type: cell-based
Conditions: for Emax: read-out: Maximum % activity (without co-corrector)
How it was run: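 Corrector compounds were given as 8-point 3-fold series from 20 or 30 μM, with or without a 2 μM co-corrector, for 18-24 h at 33 °C. Surface HRP was read by luminol luminescence as % of positive control; variable-Hill-slope sigmoidal fitting gave EC50 from triplicate plates.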

[1] = test compound alone, without co-corrector, read-out: EC50 (without co-corrector)
[2] = with co-corrector, maximum at any tested concentration
[3] = with co-corrector, read-out: EC50 (with co-corrector)
[4] = without co-corrector, maximum at any tested concentration
[5] = test compound with co-corrector, maximum at any tested concentration
[6] = test compound with co-corrector, read-out: EC50 (with co-corrector)
[7] = test compound without co-corrector, maximum at any tested concentration
[8] = test compound without co-corrector, read-out: EC50 (without co-corrector)
[9] = test compound with co-corrector

EC50 [1] [µM] | Maximum % activity (with co-corrector) [2] | EC50 [3] [µM] | Emax [4] [%] | Maximum % activity (without co-corrector) [4] | Maximum % activity (with co-corrector) [5] | EC50 [6] [µM] | Emax [7] [%] | EC50 [8] [µM] | EC50 (with co-corrector) [9] | EC50 (without co-corrector) (test compound without co-corrector) | SMILES
< 3 | +++ (≥350) | < 3 | > 150 | – | – | – | – | – | – | – | COc1ncc(C2CCC2)c(C)c1C1(C(=O)NS(=O)(=O)c2cccc3ccc(C)nc23)CC1 [II-44]
3 to 10 | ++ (≥150 and <350) | 3 to 10 | < 50 | – | – | – | – | – | – | – | Cc1ccccc1S(=O)(=O)NC(=O)C1(c2ccc3c(c2)OCO3)CC1 [Example III-86, 1-(2H-1,3-benzodioxol-5-yl)-N-(2-methylbenzene-1-sulfonyl)cyclopropane-1-carboxamide]
< 3 | +++ (≥350) | < 3 | > 150 | – | – | – | – | – | – | – | CCOCC(C)(C)c1ccc(OC)c(C2(C(=O)NS(=O)(=O)c3cccc4ncccc34)CC2)c1 [II-110]
< 3 | +++ (≥350) | < 3 | > 150 | – | – | – | – | – | – | – | COc1ccc(Br)cc1C1(C(=O)NS(=O)(=O)c2cccc3c2CCCN3)CC1 [Example I-11, 1-(5-bromo-2-methoxyphenyl)-N-(1,2,3,4-tetrahydroquinoline-5-sulfonyl)cyclopropane-1-carboxamide]
< 3 | +++ (≥350) | < 3 | > 150 | – | – | – | – | – | – | – | CCOc1ccc(C)cc1C1(C(=O)NS(=O)(=O)c2cccc3[nH]ncc23)CC1 [II-74]
< 3 | +++ (≥350) | < 3 | > 150 | – | – | – | – | – | – | – | O=C(NS(=O)(=O)c1cccc2ccccc12)C1(c2ccc(C(F)(F)F)nc2C2CCC2)CC1 [Example GI-11, 1-[2-cyclobutyl-6-(trifluoromethyl)pyridin-3-yl]-N-(naphthalene-1-sulfonyl)cyclopropane-1-carboxamide]
< 3 | +++ (≥350) | < 3 | – | +++ (≥150) | – | – | – | – | – | – | COc1ncc(Cl)cc1C1(C(=O)NS(=O)(=O)c2cccc3ccccc23)CC1 [Example GI-3, 1-(5-chloro-2-methoxypyridin-3-yl)-N-(naphthalene-1-sulfonyl)cyclopropane-1-carboxamide]
– | – | – | – | – | ++ (≥150 and <350) | 3 to 10 | > 150 | 3 to 10 | – | – | CCc1cnc(N2CCCC2)c(C2(C(=O)NS(=O)(=O)c3cccc4c3CCCN4)CC2)c1 [GII-35, 1-[5-ethyl-2-(pyrrolidin-1-yl)pyridin-3-yl]-N-(1,2,3,4-tetrahydroquinoline-5-sulfonyl)cyclopropane-1-carboxamide]
– | – | – | – | – | +++ (≥350) | < 3 | > 150 | < 3 | – | – | COCC1CCN(c2ncc(C3CCC3)cc2C2(C(=O)NS(=O)(=O)c3cccc4ncccc34)CC2)CC1 [Example GI-121, 1-{5-cyclobutyl-2-[4-(methoxymethyl)piperidin-1-yl]pyridin-3-yl}-N-(quinoline-5-sulfonyl)cyclopropane-1-carboxamide]
– | – | – | – | – | ++ (≥150 and <350) | – | < 50 | > 10 | ++^a | – | Cc1cnc(N2CCOCC2)cc1C1(C(=O)NS(=O)(=O)c2cccc3ncccc23)CC1 [GII-8, 1-[5-methyl-2-(morpholin-4-yl)pyridin-4-yl]-N-(quinoline-5-sulfonyl)cyclopropane-1-carboxamide]
< 3 | +++ (≥350) | < 3 | > 150 | – | – | – | – | – | – | – | COc1ccc(C(C)(C)C)cc1C1(C(=O)NS(=O)(=O)c2cccc3nc(C)ccc23)CC1 [Example I-70, 1-(5-tert-butyl-2-methoxyphenyl)-N-(2-methylquinoline-5-sulfonyl)cyclopropane-1-carboxamide]
< 3 | +++ (≥350) | < 3 | > 150 | – | – | – | – | – | – | – | CCOc1ccc(OC)c(C2(C(=O)NS(=O)(=O)c3cccc4ncccc34)CC2)c1 [Example I-31, 1-(5-ethoxy-2-methoxyphenyl)-N-(quinoline-5-sulfonyl)cyclopropane-1-carboxamide]
3 to 10 | +++ (≥350) | 3 to 10 | > 150 | – | – | – | – | – | – | – | COc1ncc(C(F)(F)F)cc1C1(C(=O)NS(=O)(=O)c2cccc3[nH]ncc23)CC1 [Example III-98, N-(1H-indazole-4-sulfonyl)-1-[2-methoxy-5-(trifluoromethyl)pyridin-3-yl]cyclopropane-1-carboxamide]
< 3 | +++ (≥350) | < 3 | > 150 | – | – | – | – | – | – | – | CCOc1ccc(C)cc1C1(C(=O)NS(=O)(=O)c2cccc3nc(OC)ccc23)CC1 [II-83]
3 to 10 | +++ (≥350) | 3 to 10 | > 150 | – | – | – | – | – | – | – | COc1ccc(C2(C)COC2)cc1C1(C(=O)NS(=O)(=O)c2cccc3ncccc23)CC1 [II-89]
< 3 | +++ (≥350) | < 3 | > 150 | – | – | – | – | – | – | – | COc1ccc(C2CCC2)cc1C1(C(=O)NS(=O)(=O)c2cccc3cnn(C)c23)CCC1 [Example I-25, 1-(5-cyclobutyl-2-methoxyphenyl)-N-(1-methyl-1H-indazole-7-sulfonyl)cyclobutane-1-carboxamide]
– | – | – | – | – | +++ (≥350) | 3 to 10 | > 150 | 3 to 10 | – | – | Cc1cnc(N2CCCC2)c(C2(C(=O)NS(=O)(=O)c3cccc4[nH]ccc34)CC2)c1 [GII-37, N-(1H-indole-4-sulfonyl)-1-[5-methyl-2-(pyrrolidin-1-yl)pyridin-3-yl]cyclopropane-1-carboxamide]
< 3 | +++ (≥350) | < 3 | > 150 | – | – | – | – | – | – | – | COc1ncc(C2CCC2)cc1C1(C(=O)NS(=O)(=O)c2cccc3[nH]ccc23)CC1 [Example I-21, 1-(5-cyclobutyl-2-methoxypyridin-3-yl)-N-(1H-indole-4-sulfonyl)cyclopropane-1-carboxamide]
< 3 | +++ (≥350) | < 3 | > 150 | – | – | – | – | – | – | – | CC(C)COc1ccc(N(C)C)c(C2(C(=O)NS(=O)(=O)c3cccc4ncccc34)CC2)n1 [Example I-108, 1-[3-(dimethylamino)-6-(2-methylpropoxy)pyridin-2-yl]-N-(quinoline-5-sulfonyl)cyclopropane-1-carboxamide]
< 3 | +++ (≥350) | < 3 | > 150 | – | – | – | – | – | – | – | CCOc1ccc(C(C)(C)OCC)cc1C1(C(=O)NS(=O)(=O)c2cccc3ncccc23)CC1 [Example I-99, 1-[2-ethoxy-5-(2-ethoxypropan-2-yl)phenyl]-N-(quinoline-5-sulfonyl)cyclopropane-1-carboxamide]
< 3 | +++ (≥350) | < 3 | > 150 | – | – | – | – | – | – | – | CCc1cnc(OC(C)C)c(C2(C(=O)NS(=O)(=O)c3cccc4ncccc34)CC2)c1 [Example GI-13, 1-{5-ethyl-2-[(propan-2-yl)oxy]pyridin-3-yl}-N-(quinoline-5-sulfonyl)cyclopropane-1-carboxamide]
– | – | – | – | – | +++ (≥350) | < 3 | > 150 | < 3 | – | – | CCc1cnc(OCC2CC2)c(C2(C(=O)NS(=O)(=O)c3cccc4[nH]ccc34)CC2)c1 [Example GI-108, 1-[2-(cyclopropylmethoxy)-5-ethylpyridin-3-yl]-N-(1H-indole-4-sulfonyl)cyclopropane-1-carboxamide]
– | – | – | – | – | +++ (≥350) | < 3 | > 150 | 3 to 10 | – | – | Cc1cnc(OCC2CC2)c(C2(C(=O)NS(=O)(=O)c3cccc4ncccc34)CC2)c1 [Example GI-96, 1-[2-(cyclopropylmethoxy)-5-methylpyridin-3-yl]-N-(quinoline-5-sulfonyl)cyclopropane-1-carboxamide]
< 3 | +++ (≥350) | < 3 | > 150 | – | – | – | – | – | – | – | O=C(NS(=O)(=O)c1cccc2c1CCCN2)C1(c2ccc(C(F)(F)F)nc2C2CCC2)CC1 [Example GI-10, 1-[2-cyclobutyl-6-(trifluoromethyl)pyridin-3-yl]-N-(1,2,3,4-tetrahydroquinoline-5-sulfonyl)cyclopropane-1-carboxamide]
– | – | – | – | – | ++ (≥150 and <350) | – | < 50 | – | ++^a | ++^a | COc1ncc(C2(C(=O)NS(=O)(=O)c3cccc4ccccc34)CC2)c(OC)n1 [GII-1, 1-(2,4-dimethoxypyrimidin-5-yl)-N-(naphthalene-1-sulfonyl)cyclopropane-1-carboxamide]
– | – | – | – | – | +++ (≥350) | < 3 | > 150 | < 3 | – | – | Cc1ccc2c(S(=O)(=O)NC(=O)C3(c4cc(N5CCCC5)cnc4OC(C)C)CC3)cccc2n1 [Example GI-63, N-(2-methylquinoline-5-sulfonyl)-1-{2-[(propan-2-yl)oxy]-5-(pyrrolidin-1-yl)pyridin-3-yl}cyclopropane-1-carboxamide]
– | – | – | – | – | +++ (≥350) | < 3 | > 150 | 3 to 10 | – | – | CC(C)Oc1ncc(N(C)C)cc1C1(C(=O)NS(=O)(=O)c2cccc3ncccc23)CC1 [Example GI-71, 1-{5-(dimethylamino)-2-[(propan-2-yl)oxy]pyridin-3-yl}-N-(quinoline-5-sulfonyl)cyclopropane-1-carboxamide]
